The test system of data set [1] is licking/biting behavior after injection of 2.5% formalin in the plantar surface of the rat's paw. Briefly: Formalin test (persistent pain model), licking/biting behavior, with isobolographic analysis. Format: in vivo, rat (Sprague Dawley). Conditions: for percentage of inhibition of phase II (% antinociception) / ED30 for the inhibition of phase II (experimental): single dose; for percentage of inhibition of phase II (% antinociception): 2.5% formalin; for Oral administration ED30: formalin test, dose producing 30% reduction of control response, mean ± SD of the estimate; for ED30 for the inhibition of phase II (experimental): oral, phase II of formalin test, unit not given. The text has this: In the present invention referred to the combination paracetamol:amitriptyline, the pharmacodynamic rationality was based on the knowledge of the actions of both drugs on the nociceptive pathways considering the multiple sites and mechanisms operating on specific targets, as well as their adverse effects and pharmacokinetic variables. […] This responds to the need for the use of integral systems in which peripheral activity, spinal transmission, modulating systems and suprasegmental systems of the active global network that leads to the perception of pain can interact (Raffa, R B et al., 2010. J Pain 11: 701-709). The experiments were designed in young rats (8-10 weeks, Sprague Dawley, males, 168-240 g, CENPALAB, Havana, Cuba) and divided into several groups n=6-7 each, which received increasing doses of both drugs independent and combinations, to evaluate the effect as a percentage (%) of antinociception at single doses in the formalin test compared to the vehicle-treated group. This test is considered a standard persistent pain model for the study of animal nociception, widely used (Okuda, K. et al., 2001. Pain 92: 107-15). A biphasic nociceptive behavior has been described in this test, the first phase or nociceptive is interpreted as a consequence of the direct activation of the peripheral endings of the nociceptors by the chemical irritant. While the second, tonic or late phase is interpreted as the result of the acute inflammatory response, as well as the peripheral and central sensitization produced by the sustained activation of C fibers (Coderre, T J et al., 1990. Brain Res. 535: 155-8). This phase mimics the changes in synaptic plasticity that occur during persistent pain that could progress to chronicity, which is why it received the greatest attention in our experiments. The period between the two phases of the response is identified as a phase of latency in which the activity diminishes or practically ceases, this effect being attributed to the participation of the mechanisms of central endogenous pain modulation (Dubuisson, D. and, Dennis, S G 1977. Pain 4: 161-74; Omote, K. et al., 1998. Brain Res. 814: 194-8). The time course of the antinociceptive response to individual drugs and combinations was constructed by mapping the mean time of the licking/biting as a function of the time of each phase. These values were transformed into percentage of antinociception that express the percentage of inhibition of the behavior with respect to the control of the particular phase according to the formula: % antinociception=((x−x1)/x)*100. Where X=average time of licking/bite of the control group treated with vehicle, X1=time of licking/biting of each animal of the experimental group (for phase I licking time in 5 minutes, for phase II average of the time of 15 to 45 minutes per animal). In the case that X1 was greater than X, a value of 0 was assigned to % antinociception. A value close to 0% means that the behavior is similar to that of the control group and a value close to 100% means that there was no nocidefensive behavior (Argelles, C. F. et al., 2002. Anesthesiology 96: 921-5). The antihyperalgesic effect of amitriptyline has been recognized in neural damage conditions. […] One of the proposals to explain these discrepancies has been the ability of amitriptyline to increase serotonergic signaling, which has multiple subtypes of receptors, some low and others with high affinity, with heterogeneous and even opposite actions distributed at different levels of the nociceptive pathways. […] However, 5-HT2A and 5-HT3, 5-HT4 and 5-HT7 localized pre-synaptically facilitate it. […] As a consequence, the most integrated licking/biting behavior was recorded and doses of amitriptyline (0.1, 1, 3, 10 mg/kg, p.o., AMT) were used for the dose-response curve study (FIG. 1). […]

For data set [2], the system named is mechanical allodynia in the ipsilateral hindpaw of CCI rats. Briefly: Sciatic nerve chronic constriction injury (CCI) model, mechanical allodynia (von Frey filaments), with isobolographic analysis. It is filed as in vivo, rat (Sprague Dawley). Conditions: for MPE, mechanical allodynia: day 14 post-CCI; for ED50: Rattus norvegicus. The text has this: (§1) The favorable results at a single dose in phase II of this algesymmetric test provide evidence that allows us to move towards a neuropathic pain model to study the possible combination at repeated doses. […] The CCI model has a high sensitivity (88%) for the prediction of efficacy in controlled clinical trials (Kontinen, V K and Meert, T F 2003. In: Dostrovsky, J O, Carr, D B, Koltzenburg, M. editors. the 10th World Congress on Pain, Seattle: IASP Press, p. 489-98). Once the model was reproduced, the threshold of removal of the injured hindpaw was measured by the stimulation with the von Frey filaments (mechanical allodynia) and by the stimulation with an electronic von Frey (mechanical hypernociception). The measurements were performed under baseline conditions and at 7 days post-CCI (hyperalgesic peak in the model), at which time the experimental groups were conformed (n=6-7 per group) to proceed with the dose-response curve study of amitriptyline. In this way, establish the ED30 or ED50 depending on the % of maximum possible effect (MPE) produced by the drug to reduce each of the sensory symptoms of neuropathic pain reproduced by the model (Jensen, T S and Baron, R. 2003. Pain 102: 1-8). Gabapentin, a common drug in its treatment, was used as a reference. CCI-vehicle group (distilled water 10 mL/kg, p.o.), amitriptyline groups (0.5, 1.5, 3, 10 mg/kg, p.o., AMT), gabapentin group (50 mg/kg, p.o., GBP); Sham CCI Group (distilled water 10 mL/kg, p.o.) The daily supply was given at repeated doses for 7 days until 14 days post-CCI, at which time another evaluation of the variables was performed. […] The experimental groups were formed for the dose-response curve study of paracetamol: CCI-vehicle group (distilled water 10 mL/kg, p.o.), Paracetamol groups (25, 50, 100, 200 mg/kg, p.o., P), Gabapentin group (50 mg/kg, p.o., GBP), CCI Sham Group (distilled water 10 mL/kg, p.o.). These doses of paracetamol have not been associated with liver or kidney damage in rats. […] To execute the dose-response curve mapping, the withdrawal thresholds after the treatments were converted into % of MPE. [Mechanical allodynia: MPE %=(post-treatment threshold−pre-treatment threshold)/(15 g-pre-treatment threshold)×100; Mechanical hypernociception: MPE % (Δ g post-treatment−Δ g pre-treatment)/50−Δ g pre-treatment)×100]. Subsequently, the same design was executed with the four doses of the combination calculated from the theoretical effective dose of each drug, this was calculated for each variable depending on the ED50 or ED30 according to the drug's capacity to obtain 50% or more of MPE that is 100% assumed as the total suppression of mechanical allodynia and mechanical hypernociception induced by CCI. […] In addition, concerning to the hypernociception intensity, the MPE values: 0.5 mg/kg=2.55%, 1.5 mg/kg=16.07% (p<0.05), 3 mg/kg=35.43% (p<0.001), 10 mg/kg=44.95% (p<0.001) vs GBP 50 mg/kg=63.47% (p<0.001), ED30=3.1032 (FIG. 8B). Amitriptyline inhibited both alterations of nociceptive processing but the potency of its effect was in the following order: mechanical allodynia>mechanical hypernociception. In neuropathic pain models there are controversies regarding the observation of the mechanical antiallodynic effect of amitriptyline. […] The result was similar in the model of spared neural injury (SNI), instead it reversed the responses to stimuli induced by chemical irritants induced by ATP and capsaicin, stimuli that are transmitted by the C fibers that express P2X and TRPV1 receptors and that are also involved in the transmission of thermal stimuli.

The test system of data set [3] is mechanical hypernociception in the ipsilateral hindpaw of CCI rats. Briefly: Sciatic nerve chronic constriction injury (CCI) model, mechanical hypernociception (electronic von Frey). Conditions: for MPE, intensity of mechanical hypernociception: day 14 post-CCI; for ED30, mechanical hypernociception: oral repeated doses, CCI rats, unit not given. Format: in vivo, rat (Sprague Dawley).
Description: as §1

Data set [4] can be described thus: Behavioral safety pharmacological tests (rota-rod, tone, posture, righting reflex, general state). Conditions: repeated minor doses (0.5-10 mg/kg p.o.) in the CCI model. It is filed as in vivo, rat (Sprague Dawley).
Description: The rotating rod or rota-rod test was executed. The apparatus consists of a bar with a diameter of 2.5 cm divided into 4 compartments. The bar rotated at a constant speed of 22 rpm and the time it took for the animals to fall from the bar was evaluated. The animals were evaluated 1 h after the supply. The cut-off time used was 60 seconds. In addition, the tone, posture, righting reflex, corneal, vital signs and general state of the animal were explored from 30 minutes to 3 hours post-administration of the drugs separately and the combination. The corneal and tympanic reflex were explored by the tip of a thin paper to stimulate the cornea or auditory canal and the rapid response of opening and closing of the eyes or the mobilization of the ears in normal animals was observed. The evaluation of the posture and the righting reflex was based on the scale of Devor and Zalkind. Scale for posture: 0=normal posture, grooming supported on its hind legs; 1=moderate atony and ataxia, supports its weight, but can not rest on its hind legs; 2=supports its weight, but ataxia is severe; 3=maintains muscle tone, but can not support its weight, only small movements of intention; 4=atony, flaccidity, totally immobilized, no efforts to mobilize.
In data set [5] the test system is CCI-induced Wallerian degeneration-related changes in rat sciatic nerve. Nature of the data set: Histopathological study of sciatic nerve sections (Wallerian degeneration) in CCI rats. Conditions: GBP as positive control, 14 days post-CCI.
Where [6] appears, read: 100 mg/kg p.o. daily for 7 days.
Setting [7] is: 200 mg/kg p.o. daily for 7 days.
Setting [8] is: po, CCI model, dose producing 50% reduction of control response, table values mean ± SD of the estimate, read-out: Oral administration ED50 (antiallodynic, experimental).
Where [9] appears, read: oral repeated doses, CCI rats, unit inferred, read-out: ED50, mechanical allodynia.
The mark [10] stands for this setting: 0.5 mg/kg p.o. daily for 7 days.
The mark [11] stands for this setting: 1.5 mg/kg p.o. daily for 7 days.

Molecules are shown by their SMILES. Read-outs that look alike come from different tables or passages of the source.

On to `CC(=O)Nc1ccc(O)cc1` [Paracetamol, paracetamol], for which the “percentage of inhibition of phase II (% antinociception)” value in data set [1] (50 mg/kg p.o., phase II) was 38.08%; in data set [1] (100 mg/kg p.o., phase II) it was 65.73%; in data set [1] (200 mg/kg p.o., phase II) it was 74.24%; in data set [1] (300 mg/kg p.o., phase II) it was 87.78%. The “effect on phase I of the formalin test” value in data set [1] (300 mg/kg p.o. (printed 'the dose higher than 300 mg/kg')) is recorded as “significantly reduced phase I”. For the same compound, the “effect on phase II of the formalin test” value in data set [1] (all doses used: 50, 100, 200, 300 mg/kg p.o.) was “significantly reduced phase II”. The “Oral administration ED30” value in data set [1] is listed as 32.35 ± 7.85 mg/kg. In data set [1], the “ED30 for the inhibition of phase II (experimental)” value is 32.3578. Further, the “MPE, mechanical allodynia” value in data set [2] (25 mg/kg p.o. daily for 7 days) was 25.65%; in data set [2] (50 mg/kg p.o. daily for 7 days), 60.96%; in data set [2] (setting [6]), 75.49%; in data set [2] (setting [7]), 75.45%. The ED50 in data set [2] (setting [8]) is 47.5 ± 14.1 mg/kg; in data set [2] (setting [9]), 47.5 mg/kg. Further, the antiallodynic effect entry in data set [2] (doses 25, 50, 100, 200 mg/kg p.o., repeated 7 days (p<0.05)) is “significant antiallodynic effect from doses of 50 mg/kg”. Further, the “MPE, intensity of mechanical hypernociception” value (“MPE, intensity” below) in data set [3] (25 mg/kg p.o. daily for 7 days) stood at 31.79%; in data set [3] (50 mg/kg p.o. daily for 7 days) it was 35.05%; in data set [3] (setting [6]), 42.42%; in data set [3] (setting [7]) it was 48.37%. Further, in data set [3] (25, 50, 100 (p<0.01) and 200 mg/kg (p<0.001) p.o., similar to GBP), the mechanical antihypernociceptive effect entry is on record as “mechanical antihypernociceptive effect in a dose-dependent manner”. In addition, the “efficacy to reduce the intensity of mechanical hypernociception, 300 mg/kg versus 200 mg/kg” value in data set [3] (doses of 300 mg/kg compared with 200 mg/kg) is “less efficacy”. Also, in data set [3], the “ED30, mechanical hypernociception” value came out at 22.5725.
For `CN(C)CCC=C1c2ccccc2CCc2ccccc21` [Amitriptyline, amitriptyline], the “percentage of inhibition of phase II (% antinociception)” value is −11.38% in data set [1] (0.1 mg/kg p.o., phase II (15-45 min)); 57.35% in data set [1] (1 mg/kg p.o., phase II); 55.56% in data set [1] (3 mg/kg p.o., phase II); 62.24% in data set [1] (10 mg/kg p.o., phase II). Further, the “inhibitory effect on phases of the formalin test” value in data set [1] (doses 0.1, 1, 3, 10 mg/kg p.o.) is “significant inhibitory effect was observed exclusively on phase II”. In data set [1] (doses of 20, 25, 50 and 100 mg/kg), the “licking/biting response in both phases” value is on record as “a significant dose-dependent inhibitory response pattern was not observed”. The “Oral administration ED30” value in data set [1] is 0.66 ± 0.41 mg/kg. For the same compound, the “ED30 for the inhibition of phase II (experimental)” value in data set [1] amounted to 0.6677. For the same compound, the “MPE, mechanical allodynia” value in data set [2] (setting [10]) is reported as 0.96%; in data set [2] (setting [11]) it was 1.31%; in data set [2] (3 mg/kg p.o. daily for 7 days) it was 58.75%; in data set [2] (10 mg/kg p.o. daily for 7 days), 65.97%. Moreover, the ED50 was 4.54 ± 2.28 mg/kg in data set [2] (setting [8]) and 4.54 mg/kg in data set [2] (setting [9]). In addition, the “withdrawal thresholds of the damaged paw to von Frey filaments stimulation” value in data set [2] (doses of 3 and 10 mg/kg p.o., repeated 7 days (p<0.05)) is reported as “increased the withdrawal thresholds”. The “MPE, intensity” value in data set [3] (setting [10]) is given as 2.55%; in data set [3] (setting [11]) it was 16.07%; in data set [3] (3 mg/kg p.o. daily for 7 days) it was 35.43%; in data set [3] (10 mg/kg p.o. daily for 7 days), 44.95%. In data set [3] (dose of 1.5 (p<0.01), 3 and 10 mg/kg (p<0.001) p.o., repeated 7 days), the “intensity of mechanical hypernociception” value was “significantly reduced the intensity of mechanical hypernociception”. The “ED30, mechanical hypernociception” value in data set [3] stood at 3.1032. Also, in data set [4], the “signs of sedation or catalepsy” value is recorded as “no signs of sedation or catalepsy”.
Consider `NCC1(CC(=O)O)CCCCC1` [GBP, gabapentin], for which, in data set [2] (50 mg/kg p.o. daily for 7 days), the “MPE, mechanical allodynia” value is given as 60.66%. Further, the “MPE, intensity” value in data set [3] (50 mg/kg p.o. daily for 7 days) amounted to 63.47%. The “Wallerian degeneration alterations in sciatic nerve (qualitative)” value in data set [5] was “show a decrease in these alterations”.
